From patent publication US20250255847A1, “[…]s: Novel Drugs for Triple Negative Breast Cancer” (SIMMARON RSEARCH INC, priority 2024, published 2025)

Columns and labels:
[1] = tested on: Y705P STAT3 recruitment in IL6 promoter; assay: Chromatin immunoprecipitation of STAT3 response element in IL6 promoter; format: cell-based, human; settings: 10 ng/mL EGF + 20 nM compound, 5 hrs, MDA-MB-468
Protocol: FIG. 9 illustrates an embodiment of the present invention and illustrates promoter recruitment assay of STAT3 in IL6 promoter. (A) MDA-MB-468 cells were treated with 5, 10, and 20 ng/mL doses of EGF for 5 hrs followed by immunoblot (IB) analyses of Y705 phospho and S727 phospho STAT3 in nuclear extracts. Histone 3 ([…]) IB was run as control. (B) EMSA analyses were performed in nuclear extracts of EGF (20 ng/mL)- and EGF+SIM-1 (20 nM)-treated MDA-MB-468 cells against the STAT3-specific oligonucleotide probe (Li-Cor bioscience; Cat #P/N: 829-07922) or SEQ ID NO: 1 and resolved in 6% DNA retardation gel (Invitrogen). […]
Third, to further confirm the promoter recruitment activity of Y705PSTAT3 in the IL6 promoter, chromatin immunoprecipitation assay of STAT3-response element in the IL6 promoter was performed using primer sets described under “Promoter analysis and Chromatin Immunoprecipitation (ChIP) assay” hereinabove. Briefly, MDA-MB-468 cells were incubated with 10 ng/mL EGF, EGF+SIM-1 (20 nM), and EGF+SIM-2 (20 nM) for 5 hrs followed by performing an immunoprecipitation (IP) of DNA-bound STAT3 with Y705P STAT3-specific antibody and then the precipitated DNA by PCR analysis was analyzed to identify STAT3 response element (˜121 bp long) in IL6 promoter.

[2] = tested on: RANTES; assay: RANTES real-time PCR and ELISA in MDA-MB-468 cells; format: cell-based, human; settings: 20 nM; for gene expression of RANTES (real-time PCR): 5 hrs post-treatment; for protein expression of RANTES (ELISA): 48 hrs post treatment
Protocol: FIG. 10 illustrates an embodiment of the present invention and illustrates SIM-1 and SIM-2 inhibit expressions of IL6, RANTES, and other STAT3-dependent tumor promoting genes and proteins. (A) A gene array of STAT3 dependent 66 genes (listed in Table 1) was performed in mRNA samples of MDA-MB-468 cells. Realtime PCR plate coated with 66 primer sets of STAT3-dependent genes was run for four conditions including control, EGF (25 ng/mL), EGF+SIM-1 (10 nM) and EGF+SIM-2 (10 nM). The resultant Ct value was normalized with four different housekeeping genes, and then summarized with a heatmap analyses drawn in Morpheus server of Broad Institute. […] (C) The cloning of STAT3 response element of IL6 promoter upstream of GFP reporter was performed by GeneCopoea genome editing service (Rockville, MD). The bit score map and sequence of consensus STAT3 response element or SEQ ID NO: 2 was shown below. EGFP reporter assay was performed in EGF-induced (20 ng/mL) MDA-MB-468 after treatments of increasing doses of (D) SIM-1 and (E) SIM-2 for 5 hrs. Briefly, MDA-MB-468 cells were transfected with the plasmid for 24 hrs using Lipofectamine transfection strategy followed by the treatment with EGF (20 ng/mL) alone and together with increasing doses SIM-1 and SIM-2 for additional 5 hrs. After that live cells were recorded at Ex:Em=485/535 nm wavelength for GFP activity. (F) The scrambled STAT3 response element in IL6 promoter or SEQ ID NO: 3 was also synthesized partnering with GeneCopoea. One-way ANOVA (treatment as effector) was adopted to test the significance between groups at **p<0.01, #p<0.005, and *p<0.05. (G) The GFP reporter activity was measured where the scrambled gene was cloned upstream of eGFP reporter. Results are mean±SD of three different experiments Ns=no significance. (H) Realtime PCR analyses of IL6 was performed in MDA-MB-468 cells maintained under control, EGF (25 ng/mL), EGF+SIM-1(20 nM), and EGF+SIM-2 (20 nM) conditions for 5 hrs. (I) ELISA analysis of IL6 was performed after 48 hrs in MDA-MB-468 cells kept under similar treatment conditions. (J) Realtime PCR (5 hrs post-treatment) and (K) ELISA analyses of RANTES (48 hrs post treatment) were performed under similar condition. Results are mean±SD of three different experiments. One-way ANOVA (treatment as effector) was adopted to test the significance between groups at ***p<0.001, **p<0.01, and *p<0.05.
ELISA assay. IL6 (BD OptEIA™; Cat #555220) and RANTES (Thermo; Cat #EHRNTS) ELISA was performed as per manufacturer's protocol. […]
Once the transcriptional regulation of STAT3-dependent genes was confirmed, the quantification of IL6 was performed. […]

## CCOC(=O)c1c(NC(C)=O)sc2c(Cl)c(/C=N/O)ccc12 [SIM-2, ethyl 2-acetamido-7-chloro-6-(hydroxyiminomethyl)-1-benzothiophene-3-carboxylate]
[1]
  promoter recruitment activity of Y705P STAT3 in IL6 promoter: significantly attenuated
[2]
  gene expression of RANTES (real-time PCR): significantly downregulated
  protein expression of RANTES (ELISA): significantly downregulated

## O=C(O)CCC(=O)NCc1csc2ccc(Cl)cc12 [SIM-1, 4-[(5-chloro-1-benzothiophen-3-yl)methylamino]-4-oxobutanoic acid]
[1]
  promoter recruitment activity of Y705P STAT3 in IL6 promoter: significantly attenuated
[2]
  gene expression of RANTES (real-time PCR): significantly downregulated
  protein expression of RANTES (ELISA): significantly downregulated
